From patent US5789431A, “Naphthoquinone antitumor compound and method” (The University of North Carolina at Chapel Hill, priority 1996, dated 1998)

Tests used:
NCI-H23 = experiment: in vitro non-small cell lung cancer cell growth inhibition (NCI screen)
OVCAR-3 = experiment: in vitro ovarian cancer cell growth inhibition (NCI screen)
KM 12 = experiment: in vitro colon cancer cell growth inhibition (NCI screen)
MALME-3M = experiment: in vitro melanoma cell growth inhibition (NCI screen)
UACC-62 = experiment: as above
MDA-N = experiment: in vitro breast cancer cell growth inhibition (NCI screen)
MDA-MB-435 = experiment: as above
T-47D = experiment: as above
RXF-393 = experiment: in vitro renal cancer cell growth inhibition (NCI screen)
HL-60(TB) = experiment: in vitro leukemia cell growth inhibition (NCI screen)
SW 620 = experiment: in vitro colon cancer cell growth inhibition (NCI screen)
UACC-257 = experiment: in vitro melanoma cell growth inhibition (NCI screen)
CCRF-CEM = experiment: in vitro leukemia cell growth inhibition (NCI screen)
K-562 = experiment: as above
HOP-92 = experiment: in vitro non-small cell lung cancer cell growth inhibition (NCI screen)
human tumor cell lines = format: cell-based; conditions: Homo sapiens; cancer cell panel, general / most cell lines; read-out: logGI50 values in the cancer cell line panel (converted)
ACHN = experiment: in vitro renal cancer cell growth inhibition (NCI screen)
NCI-H266 = experiment: in vitro non-small cell lung cancer cell growth inhibition (NCI screen)
U 251 = experiment: in vitro CNS cancer cell growth inhibition (NCI screen)
HCT-116 = experiment: in vitro colon cancer cell growth inhibition (NCI screen)
PC-3 = experiment: in vitro prostate cancer cell growth inhibition (NCI screen)
MOLT-4 = experiment: in vitro leukemia cell growth inhibition (NCI screen)
IGROV1 = experiment: in vitro ovarian cancer cell growth inhibition (NCI screen)
NCI-H522 = experiment: in vitro non-small cell lung cancer cell growth inhibition (NCI screen)
HCT-15 = experiment: in vitro colon cancer cell growth inhibition (NCI screen)
XF-498 = experiment: in vitro CNS cancer cell growth inhibition (NCI screen)
SNB-75 = experiment: as above
DLD-1 = experiment: in vitro colon cancer cell growth inhibition (NCI screen)
SR = experiment: in vitro leukemia cell growth inhibition (NCI screen)
RPMI-8226 = experiment: as above
SF-539 = experiment: in vitro CNS cancer cell growth inhibition (NCI screen)
OVCAR-8 = experiment: in vitro ovarian cancer cell growth inhibition (NCI screen)
HT 29 = experiment: in vitro colon cancer cell growth inhibition (NCI screen)
COLO-205 = experiment: as above
LOX1MVI = experiment: in vitro melanoma cell growth inhibition (NCI screen)
SK-MEL-5 = experiment: as above
M19-MEL = experiment: as above
UO-31 = experiment: in vitro renal cancer cell growth inhibition (NCI screen)
SK-MEL-2 = experiment: in vitro melanoma cell growth inhibition (NCI screen)
SK-MEL-28 = experiment: as above
M14 = experiment: as above
SF-268 = experiment: in vitro CNS cancer cell growth inhibition (NCI screen)
OVCAR-4 = experiment: in vitro ovarian cancer cell growth inhibition (NCI screen); conditions: OVACR-4
MCF-7 = experiment: in vitro breast cancer cell growth inhibition (NCI screen)
TK-10 = experiment: in vitro renal cancer cell growth inhibition (NCI screen)

| Compound | cytotoxicity log GI50 (NCI-H23) | cytotoxicity log GI50 (OVCAR-3) | cytotoxicity log GI50 (KM 12) | cytotoxicity log GI50 (MALME-3M) | cytotoxicity log GI50 (UACC-62) | cytotoxicity log GI50 (MDA-N) | cytotoxicity log GI50 (RXF-393) | cytotoxicity log GI50 (HL-60(TB)) | cytotoxicity log GI50 (SW 620) | cytotoxicity log GI50 (UACC-257) | cytotoxicity log GI50 (CCRF-CEM) | cytotoxicity log GI50 (K-562) | cytotoxicity log GI50 (ACHN) | cytotoxicity log GI50 (HCT-116) | cytotoxicity log GI50 (MOLT-4) | cytotoxicity log GI50 (NCI-H522) | cytotoxicity log GI50 (HCT-15) | cytotoxicity log GI50 (XF-498) | cytotoxicity log GI50 (SNB-75) | cytotoxicity log GI50 (SF-539) | further results |
| --- | --- | --- | --- | --- | --- | --- | --- | --- | --- | --- | --- | --- | --- | --- | --- | --- | --- | --- | --- | --- | --- |
| COC(=O)CCCC(=O)NC1=C(Nc2ccccc2)C(=O)c2ccccc2C1=O [Compound 52] | -4.97 M | -4.90 M | -5.28 M | -5.45 M | -5.49 M | -5.41 M |  |  |  |  |  |  |  |  |  |  |  |  |  |  | cytotoxicity log GI50 (MDA-MB-435): -5.26 M |
| O=C(NC1=C(Cl)C(=O)c2ccccc2C1=O)c1ccc(F)cc1 [Compound 2f] |  |  |  | -5.82 M | -6.55 M |  | -5.90 M | -6.47 M | -6.11 M | -5.71 M | -6.10 M | -6.04 M | -6.03 M | -6.34 M | -5.65 M | -6.34 M | -6.27 M |  |  |  | cytotoxicity log GI50 (T-47D): -5.72 M; cytotoxicity log GI50 (HOP-92): -5.79 M; GI50 (human tumor cell lines): ~1000 nM; cytotoxicity log GI50 (NCI-H266): -5.96 M; cytotoxicity log GI50 (U 251): -5.73 M; cytotoxicity log GI50 (PC-3): -5.95 M; cytotoxicity log GI50 (IGROV1): -5.77 M |
| O=C(Cc1ccc(F)cc1)NC1=C(Cl)C(=O)c2ccccc2C1=O [Compound 2j] | -5.89 M |  |  | -5.67 M |  |  | -5.75 M | -7.56 M | -5.68 M |  |  |  | -5.70 M |  |  |  | -5.64 M | -5.71 M | -5.66 M | -5.65 M | cytotoxicity log GI50 (HOP-92): -5.72 M; GI50 (human tumor cell lines): 25.1 to 2510 nM; cytotoxicity log GI50 (DLD-1): -5.62 M; cytotoxicity log GI50 (SR): -6.88 M; cytotoxicity log GI50 (RPMI-8226): -7.07 M; cytotoxicity log GI50 (IGROV1): -5.73 M; cytotoxicity log GI50 (OVCAR-8): -5.71 M |
| CCCC(=O)NC1=C(NCC)C(=O)c2ccccc2C1=O [Compound 46] |  | -4.47 M | -4.28 M | -4.41 M |  | -4.68 M | -4.32 M | -4.39 M | -4.48 M | -4.40 M |  | -4.29 M |  | -4.36 M |  | -4.59 M | -4.40 M |  |  |  | cytotoxicity log GI50 (HT 29): -4.36 M; cytotoxicity log GI50 (COLO-205): -4.44 M; cytotoxicity log GI50 (PC-3): -4.39 M; cytotoxicity log GI50 (MDA-MB-435): -4.60 M |
| CCC(C)(C)NC1=C(NC(C)=O)C(=O)c2ccccc2C1=O [Compound 36] | -4.72 M |  |  | -4.54 M | -4.60 M |  | -4.60 M | -4.78 M |  | -4.69 M | -4.77 M | -4.68 M | -4.82 M | -4.75 M | -4.86 M | -4.99 M |  | -4.84 M |  | -4.61 M | cytotoxicity log GI50 (LOX1MVI): -4.53 M; cytotoxicity log GI50 (SK-MEL-5): -4.87 M; cytotoxicity log GI50 (SR): -4.50 M; cytotoxicity log GI50 (M19-MEL): -4.88 M; cytotoxicity log GI50 (UO-31): -4.56 M; cytotoxicity log GI50 (SK-MEL-2): -4.68 M |
| CC(=O)NC1=C(NCc2ccc(Cl)cc2)C(=O)c2ccccc2C1=O [Compound 42] |  |  |  |  | -5.58 M |  | -5.37 M | -5.86 M |  | -5.21 M |  | -5.61 M | -5.74 M | -5.51 M | -5.62 M | -6.01 M | -5.25 M | -5.84 M |  | -5.36 M | cytotoxicity log GI50 (SK-MEL-28): -5.26 M; cytotoxicity log GI50 (SK-MEL-5): -5.26 M; cytotoxicity log GI50 (COLO-205): -5.27 M; cytotoxicity log GI50 (M19-MEL): -5.28 M; cytotoxicity log GI50 (UO-31): -5.29 M; cytotoxicity log GI50 (SK-MEL-2): -5.25 M |
| O=C(O)CCCc1nc2c(n1-c1ccccc1)C(=O)c1ccccc1C2=O [Compound 58] |  | -4.47 M | -4.50 M | -4.67 M | -4.48 M | -4.36 M |  | -4.43 M |  | -4.48 M | -4.39 M |  |  | -4.31 M |  | -4.85 M |  |  | -4.36 M |  | cytotoxicity log GI50 (M14): -4.72 M; cytotoxicity log GI50 (SF-268): -4.42 M; cytotoxicity log GI50 (OVCAR-4): -4.62 M; cytotoxicity log GI50 (MCF-7): -4.49 M; cytotoxicity log GI50 (RPMI-8226): -4.39 M |
| CCC(c1ccccc1F)c1nc2c(n1CC)C(=O)c1ccccc1C2=O (centres unmarked) [Compound 64] |  |  |  |  |  |  | -5.53 M |  |  |  |  |  |  |  | -4.62 M |  |  |  | -4.60 M |  | cytotoxicity log GI50 (TK-10): -5.49 M; cytotoxicity log GI50 (U 251): -5.07 M |
